Experimental data published in patent US20150011751A1, “NOVEL TRIAZINE DERIVATIVE” (CARNA BIOSCIENCES, INC., priority 2012, published 2015).
Structures can show the parent of a compound that is named as a salt.

These molecules were tested against Dephosphorylated BTK (Homo sapiens, UniProt Q06187) (assay: Test of activity inhibition against dephosphorylated BTK (mobility shift assay)).
Sequence of Dephosphorylated BTK (Q06187 whole entry): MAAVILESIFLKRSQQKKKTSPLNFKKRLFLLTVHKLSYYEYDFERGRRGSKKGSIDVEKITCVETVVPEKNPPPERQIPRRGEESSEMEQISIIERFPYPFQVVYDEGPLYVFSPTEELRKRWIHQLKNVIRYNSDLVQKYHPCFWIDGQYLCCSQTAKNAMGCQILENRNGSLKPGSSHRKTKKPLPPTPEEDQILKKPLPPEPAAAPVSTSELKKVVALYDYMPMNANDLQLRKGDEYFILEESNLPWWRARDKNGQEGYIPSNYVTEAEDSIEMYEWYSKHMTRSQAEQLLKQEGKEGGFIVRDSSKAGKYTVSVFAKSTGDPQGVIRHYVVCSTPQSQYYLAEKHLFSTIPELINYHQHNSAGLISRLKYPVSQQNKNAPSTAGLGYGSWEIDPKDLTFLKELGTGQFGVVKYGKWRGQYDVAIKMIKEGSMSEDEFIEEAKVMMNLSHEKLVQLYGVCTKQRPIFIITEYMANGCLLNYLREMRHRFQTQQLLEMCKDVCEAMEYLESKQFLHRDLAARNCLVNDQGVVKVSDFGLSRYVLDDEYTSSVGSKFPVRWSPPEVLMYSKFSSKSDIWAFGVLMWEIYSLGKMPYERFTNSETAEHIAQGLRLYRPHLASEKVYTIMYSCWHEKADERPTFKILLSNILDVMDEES
Method: Kinase activity was measured by a mobility shift assay (MSA) method using QuickScout Screening Assist (trademark) MSA (commercially available kit, manufactured by Carna Biosciences, Inc.). FITC-labeled SRCtide peptide supplied with the kit was used as a substrate of a kinase reaction.
IC50 value was calculated by regression analysis of the inhibition ratio and the test compound concentration (logarithm).
Dephosphorylated BTK was obtained by adding a A protein phosphatase (Code No. P0753S, manufactured by New England BioLabs Inc.) and MnCl2 to a biotinylated BTK protein BTN-BTK (manufactured by Carna Biosciences, Inc.) enzyme solution so as to adjust the concentrations to 10 U/μg and 2 mM, respectively, reacting the mixture at 4° C. overnight, removing the A protein phosphatase through anti-[sequence]-tag antibody agarose gel chromatography, and performing buffer exchange using 10DG Desalting Column.

IC50	Compound
2.3 nM	CN(C)CCCOc1ccc(Nc2nc(N)nc(-c3cccc(N4CCc5cc(C6CC6)cc(F)c5C4=O)c3CO)n2)cc1 [Example 183, 2-{3-[4-Amino-6-({4-[3-(dimethylamino)pro-poxy]phenyl}amino)-1,3,5-triazin-2-yl]-2-(hydroxymethyl)phenyl}-6-cyclopropyl-8-fluoro-3,4-dihydro-isoquinolin-1(2H)-one]
0.8 nM	CC(C)(C)c1ccc(C(=O)Nc2cccc(-c3nc(N)nc(Nc4ccc(OCCO)cc4)n3)c2CO)cc1 [Example 184, N-[3-(4-Amino-6-{[4-(2-hydroxyethoxy)phenyl]amino}-1,3,5-triazin-2-yl)-2-(hydroxymeth-yl)phenyl]-4-(tert-butyl)benzamide]
1.2 nM	CC(C)(C)c1ccc(C(=O)Nc2cccc(-c3nc(N)nc(Nc4ccc(-n5ccnc5)cc4)n3)c2CO)cc1 [Example 185, N-[3-(4-{[4-(1H-Imida-zol-1-yl)phenyl]amino}-6-amino-1,3,5-triazin-2-yl)-2-(hydroxymeth-yl)phenyl]-4-(tert-butyl)benzamide]
5.6 nM	CC(C)(C)c1ccc(C(=O)Nc2cccc(-c3nc(N)nc(Nc4ccc5[nH]c(C(F)(F)F)nc5c4)n3)c2CO)cc1 [Example 187, N-[3-(4-Amino-6-{[2-(tri-fluoromethyl)-1H-benzo[d]imidazol-5-yl]amino}-1,3,5-triazin-2-yl)-2-(hydroxymeth-yl)phenyl]-4-(tert-butyl)benzamide]
0.4 nM	COc1cc(Nc2nc(N)nc(-c3cccc(NC(=O)c4ccc(C(C)(C)C)cc4)c3CO)n2)cc(OC)c1OCCCO [Example 188, N-[3-(4-Amino-6-{[4-(3-hyroxypropoxy)-3,5-dimethoxyphenyl]ami-no}-1,3,5-triazin-2-yl)-2-(hydroxymethyl)phe-nyl]-4-(tert-butyl) benzamide]
1.2 nM	Nc1nc(Nc2ccc(N3CCN(C=O)CC3)cc2)nc(-c2cccc(N3CCc4cc(C5CC5)cc(F)c4C3=O)c2CO)n1 [Example 189, 4-[4-({4-Amino-6-[3-(6-cyclopropyl-8-fluoro-1-oxo-3,4-dihydroiso-quinolin-2(1H)-yl)-2-(hydroxymethyl)phenyl]-1,3,5-triazin-2-yl}amino)phenyl]pipera-zine-1-carbaldehyde]
1.4 nM	N#CCc1ccc(Nc2nc(N)nc(-c3cccc(N4CCc5cc(C6CC6)cc(F)c5C4=O)c3CO)n2)cc1 [Example 190, 2-[4-({4-Amino-6-[3-(6-cyclopropyl-8-fluoro-1-oxo-3,4-dihydroiso-quinolin-2(1H)-yl)-2-(hydroxymethyl)phenyl]-1,3,5-triazin-2-yl}amino)phenyl]acetonitrile]
1 nM	Nc1nc(Nc2ccc(N3CCNCC3)cc2)nc(-c2cccc(N3CCc4cc(C5CC5)cc(F)c4C3=O)c2CO)n1 [Example 191, 2-[3-(4-Amino-6-{[4-(pipe-razin-1-yl)phenyl]amino}-1,3,5-triazin-2-yl)-2-(hydroxymeth-yl)phenyl]-6-cyclopro-pyl-8-fluoro-3,4-dihy-droisoquinolin-1(2H)-one]
0.7 nM	CC1(c2ccc(C(=O)Nc3cccc(-c4nc(N)nc(Nc5ccc(N6CCOCC6)cc5)n4)c3CO)cc2)CC1 [Example 192, N-(3-{4-Amino-6-[(4-morph-olinophenyl)amino]-1,3,5-triazin-2-yl}-2-(hydroxymethyl)phe-nyl)-4-(1-methylcyclo-propyl)benzamide]
1.1 nM	CN1CCN(c2ccc(Nc3nc(N)nc(-c4cccc(N5CCc6cc(C7CC7)cc(F)c6C5=O)c4CO)n3)cc2)CC1 [Example 193, 2-[3-(4-Amino-6-{[4-(4-methylpiperazin-1-yl)phenyl]amino}-1,3,5-triazin-2-yl)-2-(hy-droxymethyl)phenyl]-6-cyclopropyl-8-fluoro-3,4-dihydroisoquinolin-1(2H)-one]
0.9 nM	Nc1nc(Nc2ccc(OC3CCOCC3)c(F)c2)nc(-c2cccc(N3CCc4cc(C5CC5)cc(F)c4C3=O)c2CO)n1 [Example 194, 2-{3-[4-Amino-6-({3-fluoro-4-[(tetrahydro-2H-pyran-4-yl)oxy]phe-nyl}amino)-1,3,5-tria-zin-2-yl]-2-(hydroxy-methyl)phenyl}-6-cyclo-propyl-8-fluoro-3,4-dihydroisoquinolin-1(2H)-one]
0.8 nM	Nc1nc(Nc2cn[nH]c2)nc(-c2cccc(N3CCc4cc(C5CC5)cc(F)c4C3=O)c2CO)n1 [Example 195, 2-(3-{4-[(1H-Pyrazol-4-yl)amino]-6-amino-1,3,5-triazin-2-yl}-2-(hydroxymethyl)phenyl)-6-cyclopropyl-8-fluoro-3,4-dihydro-isoquinolin-1(2H)-one]
3.4 nM	Nc1nc(Nc2ccc(OCCN3CCOCC3)cc2)nc(-c2cccc(N3CCc4cc(C5CC5)cc(F)c4C3=O)c2CO)n1 [Example 196, 2-[3-(4-Amino-6-{[4-(2-morpholinoethoxy)phe-nyl]amino}-1,3,5-tri-azin-2-yl)-2-(hydroxy-methyl)phenyl]-6-cyclo-propyl-8-fluoro-3,4-dihydroisoquinolin-1(2H)-one formate]
2.4 nM	Nc1nc(Nc2ccc(OCCCO)cc2)nc(-c2cccc(N3CCc4cc(C5CC5)cc(F)c4C3=O)c2CO)n1 [Example 197, 2-[3-(4-Amino-6-{[4-(3-hydroxypropoxy)phe-nyl]amino}-1,3,5-tri-azin-2-yl)-2-(hydroxymeth-yl)phenyl]-6-cyclo-propyl-8-fluoro-3,4-di-hydroisoquinolin-1(2H)-one]
3.7 nM	Nc1nc(Nc2ccc(Cc3nnn[nH]3)cc2)nc(-c2cccc(N3CCc4cc(C5CC5)cc(F)c4C3=O)c2CO)n1 [Example 198, 2-{3-[4-({4-[(1H-Tetra-zol-5-yl)methyl]phe-nyl}amino)-6-amino-1,3,5-triazin-2-yl]-2-(hy-droxymethyl)phenyl}-6-cyclopropyl-8-fluoro-3,4-dihydroisoquinolin-1(2H)-one]
0.8 nM	CC(C)(C)c1ccc(C(=O)Nc2cccc(-c3nc(N)nc(Nc4ccc(OCCCO)cc4)n3)c2CO)cc1 [Example 200, N-[3-(4-Amino-6-{[4-(3-hydroxypropoxy)phe-nyl]amino}-1,3,5-triazin-2-yl)-2-(hydroxymeth-yl)phenyl]-4-(tert-butyl)benzamide]
3.4 nM	CC(C)(CO)c1ccc(C(=O)Nc2cccc(-c3nc(N)nc(Nc4ccc(N5CCOCC5)cc4)n3)c2CO)cc1 [Example 201, N-(3-{4-Amino-6-[(4-mor-pholinophenyl)amino]-1,3,5-triazin-2-yl}-2-(hydroxymethyl)phe-nyl)-4-(1-hydroxy-2-meth-ylpropan-2-yl)benz-amide]
1.3 nM	CC(C)(C)c1ccc(C(=O)Nc2cccc(-c3nc(N)nc(Nc4ccc(-c5nn[nH]n5)cc4)n3)c2CO)cc1 [Example 202, N-[3-(4-{[4-(1H-Tetra-zol-5-yl)phenyl]amino}-6-amino-1,3,5-triaz-in-2-yl)-2-(hydroxy-methyl)phenyl]-4-(tert-butyl)benzamide]
0.4 nM	CC(C)(C)c1ccc(C(=O)Nc2cccc(-c3nc(N)nc(Nc4ccc(C[C@H]5COC(=O)N5)cc4)n3)c2CO)cc1 [Example 203, N-{3-[4-Amino-6-({4-[(2-oxooxazolidin-4-yl)methyl]phenyl}amino)-1,3,5-triazin-2-yl]-2-(hydroxymethyl)phe-nyl}-4-(tert-butyl) benzamide]
1.3 nM	CC(C)(C)c1ccc(C(=O)Nc2cccc(-c3nc(N)nc(Nc4ccc(S(=O)(=O)N5CCOCC5)cc4)n3)c2CO)cc1 [Example 204, N-[3-(4-Amino-6-{[4-(morpholinosulfonyl)phe-nyl]amino}-1,3,5-tri-azin-2-yl)-2-(hydroxy-methyl)phenyl]-4-(tert-butyl)benzamide]
9.9 nM	Cc1cc(Nc2nc(N)nc(-c3cccc(N4CCc5cc(C6CC6)cc(F)c5C4=O)c3CO)n2)n[nH]1 [Example 205, 2-(3-{4-Amino-6-[(5-meth-yl-1H-pyrazol-3-yl)amino]-1,3,5-triazin-2-yl}-2-(hydroxymeth-yl)phenyl)-6-cyclopro-pyl-8-fluoro-3,4-dihy-droisoquinolin-1(2H)-one]
1 nM	CC(C)(C#N)c1cc(F)c2c(c1)CCN(c1cccc(-c3nc(N)nc(Nc4cn[nH]c4)n3)c1CO)C2=O [Example 206, 2-[2-(3-{4-[(1H-Pyrazol-4-yl)amino]-6-amino-1,3,5-triazin-2-yl}-2-(hydroxymethyl)phe-nyl)-8-fluoro-1-oxo-1,2,3,4-tetrahydro-isoquinolin-6-yl]-2-meth-ylpropanenitrile]
5.9 nM	CC(C)(O)c1ccc(C(=O)Nc2cccc(-c3nc(N)nc(Nc4ccc(N5CCOCC5)cc4)n3)c2CO)cc1 [Example 208, N-(3-{4-Amino-6-[(4-morpholinophenyl)amino]-1,3,5-triazin-2-yl}-2-(hydroxymethyl)phe-nyl)-4-(2-hydroxy-propan-2-yl)benzamide]
1.4 nM	CC(C)(F)c1ccc(C(=O)Nc2cccc(-c3nc(N)nc(Nc4ccc(N5CCOCC5)cc4)n3)c2CO)cc1 [Example 209, N-(3-{4-Amino-6-[(4-morpholinophenyl)amino]-1,3,5-triazin-2-yl}-2-(hydroxymethyl)phe-nyl)-4-(2-fluoropropan-2-yl)benzamide]
0.9 nM	COCCn1cc(Nc2nc(N)nc(-c3cccc(N4CCc5cc(C6CC6)cc(F)c5C4=O)c3CO)n2)cn1 [Example 212, 2-[3-(4-Amino-6-{[1-(2-methoxyethyl)-1H-py-razol-4-yl]amino}-1,3,5-triazin-2-yl)-2-(hy-droxymethyl)phenyl]-6-cyclopropyl-8-fluoro-3,4-dihydroisoquinolin-1(2H)-one]
0.2 nM	Nc1nc(Nc2cnn(C3CCOCC3)c2)nc(-c2cccc(N3CCc4cc(C5CC5)cc(F)c4C3=O)c2CO)n1 [Example 218, 2-[3-(4-Amino-6-{[1-(tetra-hydro-2H-pyran-4-yl)-1H-pyrazol-4-yl]amino}-1,3,5-triazin-2-yl)-2-(hydroxymethyl)phenyl]-6-cycloprop-yl-8-fluoro-3,4-dihydro-isoquinolin-1(2H)-one]
0.8 nM	CCOC(=O)c1cc(Nc2nc(N)nc(-c3cccc(N4CCc5cc(C6CC6)cc(F)c5C4=O)c3CO)n2)cn1C [Example 219, Ethyl 4-({4-amino-6-[3-(6-cyclo-propyl-8-fluoro-1-oxo-3,4-dihydroisoquinolin-2(1H)-yl)-2-(hydroxy-methyl)phenyl]-1,3,5-triazin-2-yl}ami-no)-1-methyl-1H-pyrrole-2-carboxylate]
